Data published in US20050239720A1, “Combination of an agent that attenuates topoisomerase 1 activity and an agent that inhibits heat shock protein 90 for use in chemotherapy” (UNIVERSITY OF LIVERPOOL Senate House, priority 2002, published 2005).

Tested on: HCT116 p53 WT cells and p53 KO cells
Test: Growth inhibition assay (sulforhodamine B)
Type: cell-based, human
Conditions: single drug alone; HCT116 p53 WT and p53 knockout cells; FIG. 4 and FIG. 5
Experimental: The isogenic p53 human colon cancer cell line (WT and KO), HCT116 (see Hwang et al. Nat Med 2001 November 7(11):1255). Cells were maintained in McCoys 5A medium (Sigma) supplemented with 10% foetal calf serum (Gibco) at 37° C. in a 5% CO2 enriched humidified environment, Penicillin and Streptomycin. 96 well flat-bottomed plates were seeded with 3×10^3 cells per well and allowed to adhere overnight. Media was then replaced with fresh media alone (control) or containing test drugs e.g. 0-100 μM irinotecan, 50 to 200 nM geldanamycin (GA) and combinations of both. At fixed time points, cells were fixed with 3:1 methanol:acetic acid and stained with 0.4% w/v sulforhodamine B (Sigma) in 1% v/v acetic acid for 30 minutes. Plates were then washed twice with 1% v/v acetic acid, the dye solubilised with 100 μl per well of 10 mM Tris pH 10.4 and read at […] using a Benchmark microplate reader (BioRad). Drugs were used in the following concentrations for Growth inhibition and Clonogenic assays: [table]

| SMILES | effect on cell growth |
| --- | --- |
| COC1=C2C[C@@H](C)C[C@H](OC)[C@H](O)[C@@H](C)/C=C(\C)[C@H](OC(N)=O)[C@@H](OC)/C=C\C=C(/C)C(=O)NC(=CC1=O)C2=O [Geldanamycin] | inhibitory effects |
| CCc1c2c(nc3ccc(OC(=O)N4CCC(N5CCCCC5)CC4)cc13)-c1cc3c(c(=O)n1C2)COC(=O)[C@]3(O)CC [Irinotecan] | inhibitory effects |
